Data published in patent US8722014B2, “1 H-[1, 2, 3] triazole substituted amino acids and uses thereof” (Washington University, priority 2009, dated 2014).

Test system: 9L gliosarcoma cells
Test: Cell uptake assay in 9L gliosarcoma cells with amino acid transport inhibitors (cluster tray method)
Assay type: cell-based
Details: for percent uptake relative to control, Na ASC: L-Ala/L-Ser/L-Cys 3.3 mM each
Experimental: The 9L gliosarcoma tumor is an established model for human glioblastoma (brain tumor). Cell uptake assays were performed with 9L gliosarcoma cells using both (R)-[^18F]4 and (S)-[^18F]4. 9L gliosarcoma cells were cultured with Earle's minimal essential medium (MEM) augmented with 10% newborn calf serum, 1% 200 mM L-glutamine, 1% MEM vitamin solution and 1% 10 mM non-essential amino acids (NEAA). The cells were passaged every two to three days prior to use with no more than a total of 20 passages. Two to three days before the uptake assays, suspension of 2.5 or 5.0×10^4 cells in culture media were aliquoted into Costar 24 well plates to achieve log growth phase with approximately 70% confluency at the time of the uptake assay (approximately 10^5 cells per well).
Cell uptake assays were performed using the cluster tray method reported in Gazzola et al., Anal. Biochem. 115: 368-374, 1981. Two buffers were used for the assays, a phosphate buffered saline solution and a sodium-free phosphate buffered choline chloride solution. […] The choline buffer was the same as the sodium buffer except choline chloride was substituted for sodium chloride and choline phosphate dibasic was substituted for sodium phosphate dibasic. A 250 mM solution of choline phosphate dibasic was prepared by boiling 95.6 mL of 75% of choline bicarbonate (0.500 mol) and 16.9 mL of 85% aqueous phosphoric acid (0.247 mol) in 750 mL of water for 60 min. The solution was brought to a total volume of 1 liter with water and brought to pH 7.4 with concentrated aqueous hydrochloric acid. The pH of the sodium and choline buffer solutions was adjusted to 7.4 with concentrated aqueous hydrochloric acid prior to use.
A variety of inhibitor conditions were used to determine which amino acid transport system or systems were responsible for cellular uptake of (R)- and (S)-[^18F]-4. The N-methylated amino acid, methylaminoisobutyric acid (MeAIB), is a selective system A substrate and has been used extensively as a competitive inhibitor of system A transport (Shotwell, M. A., et al. Biochem. Biophys. Acta. 737: 267-284, 1983; Christensen, H. N., et al., J. Biol. Chem. 240: 3609-3616, 1965) The bulky neutral amino acid, 2-aminobicyclo-(2,2,1)-heptane-2-carboxylic acid (BCH), has been extensively used as a competitive inhibitor of system L transport, and under sodium-free conditions BCH is a selective system L inhibitor (Palacin, M., et al., Physiol. Rev. 78: 969-1054, 1998. In the presence of sodium, BCH is also an inhibitor of system B^0,+ which is a sodium-dependent amino acid transporter that typically is a minor transport systems in most tissues. A mixture of L-alanine (L-Ala), L-serine (L-Ser) and L-cysteine (L-Cys), (ASC), was used as a non-specific inhibitor condition, and this combination of amino acids is expected to inhibit a broad range of amino acid transport systems including system ASC. Because of the results of initial cell uptake assays described below and the structural relationship of the 1H-1,2,3-triazole group to the imidazole side chain of L-histidine (L-His), additional uptake assays using L-His as well as the basic side chain amino acids L-arginine (L-Arg) and L-lysine (L-Lys) individually and together (RKH) as competitive inhibitors were performed.
The following inhibitors were added to the appropriate sodium or choline buffer: N-methyl aminoisobutyric acid (MeAIB, 10 mM), a mixture of L-alanine/L-serine/L-cysteine (ASC, 3.3 mM of each amino acid), (R,S)-(endo,exo)-2-aminobicyclo(2,2,1)-heptane-2-carboxylic acid (BCH, 10 mM), L-arginine (Arg, 10 mM), L-lysine (Lys, 10 mM), L-histidine (His, 10 mM) and a mixture of Arg/Lys/H is (RKH, 3.3 mM of each amino acid). For control conditions, 10 mM of sucrose was added to maintain consistent osmolality relative to the inhibitor conditions. The pH of each solution of inhibitor in buffer was adjusted as necessary to 7.40 with 3 M aqueous hydrochloric acid prior to use in cell uptake assays. […]

SMILES: Cl.N[C@@H](Cc1cn(CC[18F])nn1)C(=O)O [(S)-[^18F]4, (S)-2-amino-3-[1-(2-fluoroethyl)-1H-[1,2,3]triazol-4-yl]propanoic acid hydrochloride salt-[^18F]]
- inhibition of uptake by ASC condition relative to the sodium control (neutral amino acid inhibitor assay, p<0.001): 89%
- inhibition of uptake by L-His, L-Arg and L-Lys (range over the three basic amino acids): 50-69%
- inhibition of uptake by L-Arg relative to control (sodium buffer): 50%
- inhibition of uptake by L-His relative to control (sodium buffer): 69%
- percent uptake relative to control, Na RKH (sodium buffer, Arg/Lys/His 3.3 mM each (FIG. 4/6)): 37±6%
- percent uptake relative to control, Na BCH (sodium buffer, BCH 10 mM, 30 sec uptake, neutral amino acid inhibitor assay (FIG. 3/5)): 74±13%
- percent uptake relative to control, Na ASC (sodium buffer, 30 sec uptake, neutral amino acid inhibitor assay (FIG. 3/5)): 11±7%
- percent uptake relative to control, Na ASC (sodium buffer, basic side chain amino acid inhibitor assay (FIG. 4/6)): 2.4±3.5%
- percent uptake relative to control, Na Arg (sodium buffer, L-arginine 10 mM (FIG. 4/6)): 50±9%
- percent uptake relative to control, Na His (sodium buffer, L-histidine 10 mM (FIG. 4/6)): 31±5%
- percent uptake relative to control, Na Lys (sodium buffer, L-lysine 10 mM (FIG. 4/6)): 46±4%
- percent uptake relative to control, Na MeAIB (sodium buffer, MeAIB 10 mM, 30 sec uptake, neutral amino acid inhibitor assay (FIG. 3/5)): 82±7%
- inhibition of uptake by BCH versus control in the presence of sodium (sodium control vs sodium BCH): 26%
- inhibition of uptake by substituting choline for sodium (sodium control vs. choline control): 42%
- reduction of uptake by BCH relative to the choline control (sodium free conditions): approximately 50%
- percent uptake relative to control, Cho BCH (sodium-free choline buffer, BCH 10 mM, relative to sodium control (FIG. 3/5)): 30±6%
- percent uptake relative to control, Cho sucrose (sodium-free choline buffer, sucrose 10 mM, relative to sodium control (FIG. 3/5)): 58±7%
- inhibition of uptake by MeAIB (system A inhibitor MeAIB, sodium buffer): no significant inhibition
